Test results reported in patent US20230348394A1, “COMPOSITIONS AND METHODS FOR TREATING MUSCULAR DYSTROPHIES” (The Regents of the University of California, priority 2020, published 2023).

What was measured:
SSPN mRNA = assay: SSPN gene expression in C2C12, H2K WT and H2K mdx myoblasts; format: cell-based, murine; conditions: 24 hours, 1, 5 and 10 μM
Description: FIG. 9. OT-9 is effective in multiple myoblast lines. […] Myoblasts were treated for 24 hours with 1, 5, and 10 μM of OT-9 or PC1-36. Gene expression was normalized to β-actin and vehicle-treated cells (0.1% DMSO). Data represents individual replicates and mean value. n=3-6. SSPN, sarcospan; R.U., relative units. *p<0.05, **p<0.01, ***p<0.001, ****p<0.0001.
RNA from myotubes treated for 48 hrs was extracted from cells using Trizol-based (Thermo Fisher Scientific) phase separation, Chomczynski et al., Biotechniques. 1993; 15(3):532-4, 6-7. RNA concentrations were determined using a NanoDrop 1000 (Thermo Fisher Scientific) and 750 ng of RNA in a 20 Id reaction was reverse transcribed using iScript cDNA synthesis (Bio-Rad) with the following cycling conditions: 25° C. for 5 mins, 42° C. for 30 mins, 85° C. for 5 mins. For mouse qPCR, SsoFast EvaGreen Supermix (Bio-Rad), 400 nM of each optimized forward and reverse primer (SSPN F: 5′ […] 3′, SSPN R: 5′ […] 3′, BACT F: 5′ […] 3′, BACT R: 5′ […] 3′), and cDNA corresponding to 37.5 ng RNA were used to amplify cDNA measured by QuantStudio 5 Real-Time PCR System (Thermo Fisher Scientific) with the following reaction conditions: 55° C. for 2 mins, 95° C. for 2 mins, 40 cycles of 95° C. for 10 seconds and 62° C. for 30 seconds, and dissociation stage. […]

[1] = test system: alpha-dystroglycan (α-DG) at the cell surface; assay: Cell surface protein biotinylation and immunoblot, C2C12 myotubes; format: cell-based, murine; conditions: 5 μM, 48 hours
Description: Myotubes treated for 48 hrs were lysed using RIPA buffer (Thermo Fisher Scientific) containing Halt Protease Inhibitor Cocktail (Thermo Fisher Scientific). Cell lysates in RIPA buffer were rocked for 1 hr at 4° C. and centrifuged at 1,000 RPM for 30 mins at 4° C. The supernatant was collected, quantified for protein concentration using the DC protein assay (Bio-Rad), and normalized to 2 mg/ml in water and Laemmli sample buffer with a final concentration of 10% glycerol (Sigma-Aldrich), 5% beta-mercaptoethanol (Sigma-Aldrich), 3% sodium dodecyl sulfate (Sigma-Aldrich), and 0.05% bromophenol blue (Sigma-Aldrich). For SDS-PAGE, samples were heated to 95° C. for 2 mins before loading 40 μg onto 4-12% tris-glycine or bis-tris polyacrylamide gels (Novex), electrophoresed for 2 hrs at 100 volts at RT, and transferred to a nitrocellulose membrane for 2 hrs at 100 volts at 4° C. Ponceau S staining was performed to visualize protein loading and verify protein transfer. […] Autoradiography films were developed using a SRX-101A tabletop processor (Konica Minolta), scanned to a digital file, and analyzed by densitometry of bands using ImageJ version 1.51 s. […]

CCN(CC)c1ccc2cc(C(=O)Nc3ccc(C(=O)N4CCCCCC4)cc3)c(=O)oc2c1 [OT-9]
SSPN mRNA levels in myoblasts (SSPN mRNA): increased SSPN mRNA levels in all myoblast lines | increase of core α-DG at the cell surface [1]: 1.6 fold | increase of glycosylated α-DG at the cell surface [1]: 1.8 fold
